From PubChem BioAssay AID179 (DTP/NCI, 2004)
Values joined by “and” are separate entries in the source; they are usually repeats but may differ in a detail not shown here. Identical values can stand only once. Active and inactive are the calls of the source.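 The calls were made as follows: active = compounds giving half or more protection of infected cells from virus-caused growth loss, again on retest; inactive = the rest.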

System: CEM cells HIV-1 protection, formazan growth assay
Assay: NCI AIDS Antiviral Assay
Details: for IC50: measured here: growth of uninfected CEM cells
Summary of the method: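 Five concentrations of each compound were applied to infected and uninfected human CEM cells. Protection from HIV-1 was judged from growth measured with a soluble formazan assay.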

Compound	outcome	EC50	IC50
Cc1nnc(NS(=O)(=O)c2ccc(N=Nc3cc(N=Nc4ccc(S(=O)(=O)Nc5nnc(C)s5)cc4)c4c(NC(=O)C(Cl)Cl)cccc4c3OC(=O)C(Cl)Cl)cc2)s1 (tested in a mixture with another compound)	inactive		
C(=C\c1cc(-c2ccc3ccccc3n2)nc2ccc3ccccc3c12)/c1ccc2ccccc2n1		> 200 µM	> 200 µM
COC(=O)[C@@H]1C[C@@]2(C3C=CN(C(=O)C(F)(F)F)C=C3)c3ccccc3N(C(=O)C(F)(F)F)[C@H]2N1C(=O)OC		> 200 µM	166 µM
CC(=O)C(N=NC1CCC(S(=O)(=O)NB2N=CS2)CC1)C(=O)Nc1ccccc1C (stereo not drawn)		> 11.5 µM	> 11.5 µM
CCOCCOCCOCOCCOCCOCC		> 200 µM	> 200 µM
COc1ccc(NC(=S)/C(=C(\[O-])c2ccc([N+](=O)[O-])cc2)[n+]2ccc(C(C)C)cc2)cc1		> 200 µM	> 100 µM
CCCCCCCCCCCCCCCCCCCCCCCCCCCCCC=C(c1cc(Cl)c(OC)c(C(=O)OC)c1)c1cc(Cl)c(OC)c(C(=O)OC)c1		> 2.24 µM	> 2.24 µM
CC(=O)OC1CCC2(COS(=O)(=O)c3ccc(C)cc3)C(=CCC3C2CCC2(C)C(C(C)CCCC(C)C)CCC32)C1 (stereo not drawn)		> 200 µM	> 200 µM
COc1ccc2c(C)cc(N/N=C(\C)C=O)nc2c1		> 200 µM	4.07 µM
C=C1C(=O)OC2CC(C)C(C(CC(C)=O)OC(C)=O)=CCC12 (stereo not drawn)		> 324 µM	1.58 µM
COC(=O)C(=O)C(C(=O)C(=O)Nc1ccc([N+](=O)[O-])cc1)c1nc2ccccc2[nH]c1=O (stereo not drawn)		> 575 µM	72.4 µM
COc1ccc([N-]/C(=N\n2c(=O)c(C)nn(C)c2=S)N(c2ccc(OC)cc2)c2nn3c(=O)c(C)n[n+](C)c3s2)cc1	inactive		
CC(O)(C(=O)N(O)c1ccc(Cl)cc1)c1ccc(Cl)cc1 (stereo not drawn)		> 20 µM	17.8 µM
NC(=O)c1ccc2cc(O)c(O)cc2c1		> 245 µM	34.7 µM
C=C(C)CNC1=C(C)C(=O)C2=C(C1=O)[C@H](COC(N)=O)[C@]1(OC)[C@@H]3N[C@@H]3CN21		> 200 µM	14.5 µM
CNc1[nH]c(=S)nc2sc3c(c12)CCCC3		> 151 µM	112 µM
COc1ccc(CN2CC(C)N(N=Cc3c4c(O)c5c(O)c(C)c6c(c5c3O)C(=O)C(C)(O/C=C/C(OC)C(C)C(OC(C)=O)C(C)C(O)C(C)C(O)C(C)/C=C/C=C(\C)C(=O)N4)O6)C(C)C2)cc1 (stereo not drawn)		> 200 µM	9.12 µM
O=C(CCC(=O)OCC1OC(O)(CC2OC(CO)C(O)C(O)C2O)C(O)C1O)OCc1ccccc1 (stereo not drawn)		> 200 µM	> 200 µM
Cc1cccc(C)c1N1C(=O)C(=O)C(c2nc3ccccc3s2)/C(=N/NC(=O)c2ccccc2O)C1=O (stereo not drawn)		> 251 µM	6.61 µM
O=C1CCC(N2C(=O)C3C4C=CC(CC4)C3C2=O)C(=O)N1 (stereo not drawn)		> 871 µM	> 871 µM
COC(=O)c1cc(C(=CCCc2ccccc2)c2cc(Br)c(OC)c(C(=O)OC)c2)cc(Br)c1OC		> 200 µM	11.2 µM
CCOC(=O)/C(=C\c1ccc(Cl)cc1)C(C)=O		> 372 µM	64.6 µM

Compound	outcome	EC50	IC50
c1ccc(COc2cccc3ccc[n+](Cc4ccccc4)c23)cc1		> 251 µM	4.68 µM
O=C(NC(C(F)(F)F)(C(F)(F)F)P(=O)(Cc1ccccc1)Cc1ccccc1)C(C(F)(F)F)C(F)(F)F	inactive		
C/C(=N\N=C(N)N)C(CN(C)C)C(c1ccccc1)c1c(O)c2ccccc2oc1=O (stereo not drawn)		> 40.7 µM	17.4 µM
CCCCCCCCCCCc1c2[nH]c3cc(C)ccc3oc2cc2[nH]c3cc(C)ccc3oc12		> 2 µM	> 2 µM
CCOC(=O)NNC(=O)NC12CC3CC(CC(C3)C1)C2	inactive		
O=C1c2ccccc2-c2nnc(-c3ccc(Cl)cc3)cc21		> 100 µM	> 100 µM
O[C@@]1(C#Cc2ccc3c(c2)OCO3)CCC[C@H]1NCc1ccccc1		> 200 µM	36.3 µM
CCOC(=O)C(=O)Cc1cc(=O)n(C)c2ccccc12		> 200 µM	170 µM
c1ccc2c3csc4ccccc4c-3nc2c1	inactive		
CCOC(=O)N/N=C(/OCC)c1ccccc1		> 200 µM	> 200 µM
CC1=C(C#N)C2(C(=O)Nc3ccccc32)C(C#N)=C(C)N1		> 162 µM	> 162 µM
[Cu+2].[NH-]c1cc(N)ccc1O.[NH-]c1cc(N)ccc1O	inactive		
N#CCCN(CCCCN(CCC#N)C(=O)Nc1ccccc1)C(=O)Nc1ccccc1		> 200 µM	> 200 µM
Cc1ncc([N+](=O)[O-])n1CCNCCCn1ccnc1[N+](=O)[O-]		> 200 µM	> 200 µM
NC(Cc1c2ccccc2cc2ccccc12)C(=O)O (stereo not drawn)		> 200 µM	102 µM
CN(C)CCC=C1c2ccccc2C=Cc2ccccc21		> 200 µM	33.9 µM and 28.8 µM and 37.2 µM
NC(=S)Nc1[nH]c(=S)nc2c1SC1=N/C(=C\c3ccco3)C(=O)N12		> 200 µM	81.3 µM
CCOc1ccc(NC(=O)CC2C(=O)Nc3ccccc3S2(=O)=O)cc1 (stereo not drawn)		> 19.5 µM	> 19.5 µM
COC(=O)CC(CC(=O)C(=O)OC)C(=O)OC (stereo not drawn)		> 251 µM	> 251 µM
CCCCc1c2c(nc3c1CCc1cc4cc5c(nc4nc1-3)-c1nc3c(c(CCCC)c1CC5)CCCC3=O)C(=O)CCC2		> 100 µM	0.457 µM
COC(=O)CCC1CCc2c(OC)ccc(O)c2C1=O (stereo not drawn)	inactive		
O=C(OCCN1CCOCC1)C1C[C@@H](O)CN1C(=O)c1ccc2c(c1)OCO2 (stereo partly drawn)		> 200 µM	> 200 µM

Compound	outcome	EC50	IC50
Nc1nc(-c2ccccc2)nc(N)c1N=O		> 200 µM	2.57 µM
C=C1CC(COc2cc(=O)oc3ccccc23)(c2ccccc2)OC1=O (stereo not drawn)		> 200 µM	0.38 µM
COc1ccc(NC(=O)/C(=C/c2ccccc2)C(C)=O)cc1		> 123 µM	18.6 µM
CN(C)CCSC(=Nc1ccccc1)N1C=COC=C1		> 871 µM	44.7 µM
COc1ccc(C2c3cc4c(cc3OC(Nc3ccccc3)C2C)OCO4)cc1 (stereo not drawn)		> 200 µM	24.5 µM
COc1ccc(/C=C/C(=O)c2sc(NC(=S)NC(=O)c3ccc(Cl)cc3)nc2C)cc1OC		> 37.2 µM	> 37.2 µM
C/C(=C/C=C(/C)C(=O)O)C(=O)O		> 1480 µM	> 1480 µM
N#Cc1ccccc1OCCOc1ccccc1C#N		> 200 µM	> 200 µM
CCOC(=O)C(NC(=O)c1cccc(Cl)c1)(N1CCN(c2cc3c(cc2F)c(=O)c(C(=O)O)cn3CC)CC1)C(F)(F)F (stereo not drawn)		> 200 µM	0.339 µM
O=C(c1ccccc1)c1c(-c2ccccc2)sc2nc3ccccc3nc12		> 27.5 µM	> 27.5 µM
O=C(O)c1ccccc1SCc1cc(O)ccc1O		> 200 µM	30.9 µM
CCOC(=O)CC1=NC(=Nc2cc(Cl)ccc2Cl)SC1		> 77.6 µM	> 77.6 µM
C=CN1CCCC1=O	inactive		
CSC(SC)=C(C(=O)O)P(=O)(O)O		> 200 µM	> 200 µM
O=S(=O)(O)CC(O)CSSCC(O)CS(=O)(=O)O (stereo not drawn)		> 200 µM	> 200 µM
O=S(=O)(O)c1cccc(N=Nc2ccc(N=Nc3ccc(Nc4ccccc4)c4c(S(=O)(=O)O)cccc34)c3ccccc23)c1		155 µM	> 200 µM
O=P(O)(CN(C1CCCCC1)C1CCCCC1)CN(C1CCCCC1)C1CCCCC1		178 µM	> 200 µM
COC(=O)c1c(-c2ccccc2)cc2c3cc(-c4ccccc4)c(C(=O)OC)n3c3ccccc3n12		> 28.8 µM	> 28.8 µM
C/C=C/C(=O)Oc1cccc2cccnc12		> 251 µM	1.51 µM
CCOC(=O)CN(c1sc(C)c(-c2ccccc2)c1C(=O)OCC)S(=O)(=O)c1ccc(C)cc1		> 200 µM	5.13 µM
COc1ccc2c(c1)CC1c3[nH]c4ccccc4c3CCN1C2 (stereo not drawn)		56.2 µM and > 102 µM	102 µM and 46.8 µM
Cc1ccc2c(c1)P(=O)(O)c1cc(C)ccc1S2(=O)=O		> 200 µM	> 200 µM

Compound	outcome	EC50	IC50
CN(C)/N=N/c1nc[nH]c1C(N)=O		> 74.1 µM	4.9 µM
Cn1cnc2nc3ncn(C)c3cc21		> 200 µM	> 200 µM
O=C(CCC(=O)N/N=C/c1ccccc1O)N/N=C/c1ccccc1O	inactive		
Cc1cccc(N2C(=O)C=C(NC(CC(C)C)c3nc4ccccc4[nH]3)C2c2ccccc2)c1 (stereo not drawn)		> 200 µM	17 µM
COC1=CC(=O)C(CO)=CC1=O		> 200 µM	7.59 µM
Cc1cn(C2OC(CO)C(CN=[N+]=[N-])C2O)c(=O)[nH]c1=O (stereo not drawn)		> 200 µM	> 200 µM
CC(=O)N[C@H]1CC2(C=C(Br)C(=O)C(Br)=C2)OC1=O		> 33.1 µM	5.13 µM
CCOC(=O)c1ccc(-c2cc(C)[nH]n2)[nH]1		> 200 µM	77.6 µM
Cc1ccc(C)n1-n1c(-c2ccccc2)n[nH]c1=O		> 200 µM	89.1 µM
CCOC(=O)c1ccc(N=Nc2ccc(N(CCC#N)CCC#N)cc2C)cc1		> 9.77 µM	> 9.77 µM
C/C(=N/NC(=O)C[N+](C)(C)C)C(CN(C)C)C(=O)Nc1ccccc1 (stereo not drawn)		> 13.5 µM	> 13.5 µM
Nn1nc2ccccc2n1		> 1860 µM	> 1860 µM
O=c1[nH]c(-c2ccc(-c3nc4cc([N+](=O)[O-])ccc4c(=O)[nH]3)cc2)nc2cc([N+](=O)[O-])ccc12		> 7.94 µM	> 7.94 µM
NCCCCNCCCNC(=O)c1csc(-c2nc(CCN)sc2Cl)n1		> 302 µM	18.6 µM
NNC(=O)C(=O)N/N=C(\CCC(=O)Nc1ccc(Cl)cc1)Cc1nc2ccccc2s1		> 77.6 µM	14.5 µM
CC(C)N1CC2CC(CN(C(=O)c3ccc(Cl)cc3)C2)C1		> 427 µM	> 427 µM
Cc1ccc2cc(NC(=O)CBr)c3ccc(C)nc3c2n1		> 2 µM	0.955 µM
N#CC(C#N)=Cc1cccc(C#N)c1		> 141 µM	2.45 µM
Cc1coc2c1[C@@H](O)[C@@]1(C)[C@H](CCC[C@@H]1C)C2		> 200 µM	35.5 µM
O=C(/C=C(/SS/C(=C/C(=O)c1ccccc1)c1ccccc1)c1ccccc1)c1ccccc1		> 200 µM	2.51 µM
